Test results: patent US20050144654A1, “Procedure for screening of neuroactive substance and the associated neural plasticity” (COUNCIL OF SCIENTIFIC & INDUSTRIAL RESEARCH, priority 2003, published 2005)
Counter-ions that a name gives are not always drawn. Marks after values point to notes of the source that are not given here.

What was measured:
[1] = system: Drosophila melanogaster adult males (wild type Oregon-R strain); assay: Horizontal locomotion assay (distance walked); type: in vivo; settings: for Distance walked by flies, Mean: n=30; for distance walked than the control: 31 day of drug withdrawal, result in words
Method: (§1) Unless otherwise mentioned, standard methods of fly manipulation were followed. Standard fly medium consisting of agar-agar, maize powder, brown sugar, dried yeast and nipagin was used. Flies were cultured at 22±1° C., 60% RH, and 12 hrs light (9 AM to 9 PM) and 12 hours dark cycle. D. melanogaster wild type Oregon-R strain was used in the experiment. To obtain males for control and drug treatment, flies from identical cultures grown in glass vials were first allowed to lay eggs in milk bottles containing medium. Flies were shifted to fresh bottles every 12 hr. First 4 sets of bottles were discarded. Flies that emerged in subsequent bottles were only used. Those that emerged in the beginning were first discarded and then flies were collected twice at 12 hr interval. Flies collected each time were kept separately in a single bottle. Two days after first collection, males and females from both the bottles were separated. Males were then pooled together and shifted to a new bottle. Flies were used for control or drug treatment two days later.
(§2) Following morning after pooling males for treatment, drugs (Sigma-Aldrich Co, St. Louis, U.S.A.) were first dissolved in distilled water at following concentration: 33.3 mg/ml of strychnine (STR), 40 mg/ml of pentylenetetrazol (PTZ), 20 mg/ml of pilocarpine-hydrochloride (PILO), 20 mg/ml of tetraethylammonium chloride (TEA), 10 mg/ml of lithium chloride (LICA), and 10.5 mg/ml of ethosuximide (ESD). Appropriate volume of freshly made drug solutions were then poured in molten fly media, and mixed thoroughly, to achieve a final concentration of 3.33 mg/ml of STR, 4 mg/ml of PTZ, 2 mg/ml of PILO, 2 mg/ml of TEA, 1 mg/ml of LICA, and 1.05 mg/ml of ESD. For control, i.e., normal food (NF), distilled water of same volume as drug solution was added in the medium and mixed. Following this, the molten media was dispensed in glass vials, stored overnight at 4° C. and then used for above treatment of flies. Thirty male flies were shifted to each of the seven treatment vials, NF, STR, PTZ, PILO, TEA, LICA and ESD. Flies were maintained at 22±1° C., 60% RH, and 12 hrs light (9 AM to 9 PM) and 12 hours dark cycle.
(§3) Negative geotaxis assays for measuring height climbed and climbing speed, and horizontal locomotion assay for measuring distance walked—were performed at room temperature, between 9 AM to 9 PM. They were all performed at a specified area in a room, where same light sources were always used. While measuring various locomotor activities, extreme care was taken to ensure that the room is quiet, and the table onto which assays were performed undisturbed and vibration free. Utmost care was taken to ensure identical handling of flies, in minutest details. For measuring height climbed, climbing speed and distance walked, a single fly was randomly selected at a time. This was achieved by first inverting flies from a given treatment vial into an empty vial and then continuously and gently shaking and inverting both the vials in such a way that a single fly is finally trapped in the empty vial. Once trapped, all the three locomotor activities were measured using the same fly, height climbed, climbing speed and distance walked, in that order. One fly each from NF, STR, PTZ, PILO, TEA, LICA, and ESD, selected randomly, was first scored and then the same exercise was repeated for another two flies. Once a fly was scored for all the three locomotor activities, it was discarded. Flies were particularly checked for intact legs and wings, before they were used in negative geotaxis and horizontal locomotion assays.
(§4) A glass tube of 1.7 cm diameter and […], along with two cotton plugs were used in negative geotaxis and horizontal locomotion assays. The tube was length wise marked with lines at every cm. Three flies from each treatment were assayed. Each fly was assayed 10 times in succession.

[2] = system: Drosophila melanogaster adult males (wild type Oregon-R strain); assay: Negative geotaxis assay (height climbed, climbing speed); type: in vivo; settings: for Height climbed by flies, Mean / Climbing speed of flies, Mean: n=30
Method: as §1, §2, §3, §4

[3] = day 7 of the beginning of treatment, drug in fly medium
[4] = 4th day after drug withdrawal (21st day of beginning of treatment)
[5] = 31st day after drug withdrawal (48th day of beginning of treatment)
[6] = day 7 of the beginning of treatment, result in words
[7] = 31st day after drug withdrawal, result in words

Row | SMILES | Distance walked by flies, Mean ([1]; 4th day after drug withdrawal) | Distance walked by flies, Mean ([1]; 31st day after drug withdrawal) | Distance walked, Mean [1, 3] | Height climbed by flies, Mean [2, 4] | Climbing speed of flies, Mean ([2]; 4th day after drug withdrawal) | Height climbed by flies, Mean [2, 5] | Climbing speed of flies, Mean ([2]; 31st day after drug withdrawal) | Climbing speed, Mean [2, 3] | Height climbed, Mean [2, 3] | height climbed compared to NF, the control [2, 6] | distance walked than the control [1] | climbing speed than the control (Table 2) [2, 7] | height climbed compared to NF ([2]; 4th day after drug withdrawal, result in words) | Distance walked, Mean ([1]; 168 h) | Climbing speed, Mean ([2]; 168 h) | Height climbed, Mean ([2]; 168 h)
1 | CC[C@@H]1C(=O)OC[C@@H]1Cc1cncn1C [PILO, pilocarpine-hydrochloride] | 33.83** cm marks crossed per minute | 21.16 cm marks crossed per minute | 48.53*** cm marks crossed per minute | 19.96 cm | 1.32** cm/sec | 16.46 cm | 1.14** cm/sec | 1.52*** cm/sec | 34.66*** cm | increase | – | – | – | – | – | –
2 | [Cl-].[Li+] [LICA, lithium chloride] | 33*** cm marks crossed per minute | 6.93*** cm marks crossed per minute | 34.23 cm marks crossed per minute | 25.33 cm | 1.22* cm/sec | 11.4* cm | 1.3*** cm/sec | 1.9*** cm/sec | 35.8*** cm | increase | lesser | lower | – | – | – | –
3 | O=C1C[C@@H]2OCC=C3CN4CC[C@]56c7ccccc7N1[C@H]5[C@H]2[C@H]3C[C@H]46 [STR, strychnine] | 43.66 cm marks crossed per minute | 27.66 cm marks crossed per minute | 39.33* cm marks crossed per minute | 26.26 cm | 1.29** cm/sec | 15.8 cm | 1.04* cm/sec | 1.53*** cm/sec | 33.36*** cm | – | – | – | – | – | – | –
4 | CCC1(C)CC(=O)NC1=O (centres unmarked) [ESD, ethosuximide] | 40.16*** cm marks crossed per minute | 30.63 cm marks crossed per minute | 37.1 cm marks crossed per minute | 32.66*** cm | 1.5*** cm/sec | 19.5*** cm | 1.52*** cm/sec | 0.98 cm/s | 25.66* cm | increase | – | greater | increase | – | – | –
5 | CC[N+](CC)(CC)CC.[Cl-] [TEA, tetraethylammonium chloride] | 26.76*** cm marks crossed per minute | 27.16 cm marks crossed per minute | 45.1*** cm marks crossed per minute | 22.13 cm | 1.11 cm/s | 16.2 cm | – | 1.67*** cm/sec | 32*** cm | increase | – | – | – | – | – | –
6 | C1CCc2nnnn2CC1 [PTZ, pentylenetetrazol] | 28.03*** cm marks crossed per minute | 12.5* cm marks crossed per minute | – | – | 1.25** cm/sec | – | 1.37*** cm/sec | – | – | increase | lesser | lower | – | 42.5** cm marks crossed per minute | 1.63*** cm/sec | 29.13*** cm
